The assay deals with Plasmodium falciparum. Briefly: GSK_TCMDC: Inhibition of Plasmodium falciparum 3D7 in whole erythrocytes, using parasite LDH activity as an index of growth. Type of assay: functional, organism-based. To be noted: Plasmodium falciparum, 3D7.

Our source for the XC50 values is ChEMBL document CHEMBL1157539, “Thousands of chemical starting points for antimalarial lead identification” (Nature, 2010).

In the case of `Cc1[nH]cnc1-c1cccc(NC(=O)c2cc3ccccc3s2)c1`, the XC50 amounted to 210 nM.

Regarding `CC(C)Nc1cc(C(=O)N[C@@H](Cc2ccccc2)[C@H](O)CNC2CCCCC2)cc(N2CCCCS2(=O)=O)c1`, the XC50 came to 103 nM.

The compound `CN1CCN(CCCN(Cc2csc(-c3ccc(CNCc4ccccc4)cc3)n2)C(=O)Nc2ccc3ccccc3c2)CC1` returned an XC50 of 1100 nM.

The compound `COc1cc2nc(N3CCC(CNC(=O)c4ccc(-c5ccc(C(=O)N(C)C)cc5OCCO)cc4)CC3)nc(N)c2cc1OC` showed an XC50 of 645 nM.

As to `O=C(Nc1ccc(Cn2nc(Cl)c(N3CCCNCC3)cc2=O)cc1)Nc1ccc(-c2ccccc2)cc1`, the XC50 was 843 nM.

`CCCCCCNc1cc(C)nc(NC(=N)Nc2cccc(C(F)(F)F)c2)n1` displayed an XC50 of 739 nM.

`Cc1cccc(CNc2nc(C)cc(N[C@@H](CC(C)C)C(=O)NCc3cccc(F)c3)n2)c1` returned an XC50 of 1180 nM.

In the case of `Cc1ccc(C)c2c1[nH]c1ccc(C3=NCCN3)cc12`, the XC50 stood at 497 nM.

As to `O=C(Cc1ccc(-n2cnnn2)cc1)N(Cc1cncn1Cc1cccc(C(F)(F)F)c1)CC1CC1`, the XC50 stood at 962 nM.

Compound `O=C(NCC(CCCN1CCC(c2c[nH]c3ccccc23)CC1)c1ccccc1)Nc1ccc(Cl)c(Cl)c1` (configuration not stated) had an XC50 of 787 nM.

The compound `CC1(CCN2CCC(c3c[nH]c4cnccc34)CC2)CCCc2c(Br)cccc2C1=O` (configuration not stated) registered an XC50 of 195 nM.

Compound `COCCOC(=O)C(=O)c1c(-c2ccccc2)c(-c2ccc(OC)c(OC)c2)c2c3cc(OC)c(OC)cc3ccn12` had an XC50 of 497 nM.

For the compound `c1ccc(CCNCc2ccc(-c3ccc(CNc4ccc5ncccc5c4)cc3)cc2)cc1`, the XC50 worked out at 916 nM.

In the case of `Cc1nnc2c(NC(=O)NC(C)C)cc3cc(-c4ccc(CN5CCCCC5)cc4)ccc3n12`, the XC50 came out at 1180 nM.

`CC(C)NCc1ccc(OCc2cccc(COc3ccc(CNC(C)C)cc3I)c2)c(I)c1` displayed an XC50 of 92 nM.

`O=C(Nc1ccc(Cl)cc1)c1ccc(CN2CCCN(Cc3cccc(O)c3)CC2)cc1` registered an XC50 of 388 nM.

Compound `CC[C@H]1CN2CC[C@@H]1C[C@H]2[C@H](O)c1cc(N2CCC(C)CC2)nc2ccc(OC)cc12` showed an XC50 of 172 nM.

As to `COc1cc2c(cc1N(C(C)C)S(=O)(=O)c1sc3ccc(Cl)cc3c1C)CCNCC2`, the XC50 came out at 1050 nM.

`Cc1ccc(NC(=O)c2cccc(CN3CCCN(Cc4cccc(O)c4)CC3)c2)cc1C` came in with an XC50 of 1040 nM.

As for `CC(C)CNCc1ccc(-c2cccc(CN(CCN(C)C)C(=O)CCC3CCCC3)c2)cc1`, the XC50 came to 809 nM.

As for `OCCOCCNCc1cccc(C#Cc2cc3ncnc(Nc4ccc(OCc5cccc(F)c5)c(Cl)c4)c3s2)n1`, the XC50 came out at 781 nM.

In the case of `O=C(Nc1cccc(CN2CCCN(Cc3ccccc3)CC2)c1)c1cc2ccccc2s1`, the XC50 worked out at 1200 nM.

Consider `Oc1ccc2[nH]cc(C3=CCN(Cc4ccccc4)CC3)c2c1`, for which the XC50 came to 983 nM.

The compound `COc1ccc(C(F)(F)F)cc1N1CCN(CCCCNC(=O)c2ccc(NC(=O)c3ccc(Cl)cc3)cc2)CC1` registered an XC50 of 909 nM.

Take `Cc1ccc(NC(=O)c2cnc(N3CCN(c4ccncc4)CC3)c(Cl)c2)cc1`: the XC50 was 965 nM.

In turn, `CCOc1c(N2CCN(CCCCNC(=O)c3ccc(NC(=O)c4ccc(Cl)cc4)cc3)CC2)ccc2ccccc12` showed an XC50 of 684 nM.

In turn, `O=C(/C=N/O)Nc1ccccc1[N+](=O)[O-]` yielded an XC50 of 785 nM.

Take `Cc1cc2c(cc1C(F)(F)F)N(C(=O)Nc1cc(OCCN(C)C)cc(C(F)(F)F)c1)CC2`: the XC50 came to 708 nM.

`Cc1cccc2nc(-c3ccc(-c4ccc(CN5CCCC(N)C5)cc4)cc3)[nH]c12` (configuration not stated) showed an XC50 of 350 nM.

As to `CC(Cc1ccc(NC(=O)c2ccc(CNCc3ccccc3)cc2)cc1)N(CCc1cccc(Cl)c1)C(=O)OC(C)(C)C` (configuration not stated), the XC50 came out at 974 nM.

Regarding `CC1(C)NC(N)=NC(=N)N1OCCCOc1ccc(N)cc1`, the XC50 was 7.04 nM.

`O=C(n1c(-c2cc3ccccc3n2C(=O)C(F)(F)F)cc2ccccc21)C(F)(F)F`: the XC50 stood at 878 nM.

On to `CCCCNc1nc(NCCCC)c2c(C)c(Cc3ccccc3)c(NCCCC)nc2n1`, for which the XC50 was found to be 889 nM.

The compound `COC(=O)c1ccccc1N1CCN(CCCCNC(=O)c2ccc(NC(=O)c3cc(Cl)cc(Cl)c3)cc2)CC1` displayed an XC50 of 558 nM.

`COCCNC(=O)C(CNC(=O)c1ccc2c(c1)OCO2)NC(=O)c1ccc(-c2ccccc2)cc1` (configuration not stated): the XC50 stood at 974 nM.

`Nc1ncc(OC2CCCCC2)c(N)n1` had an XC50 of 1070 nM.

As to `CCC[C@@H]([C@@H](CC1CCC(C)CC1)C(=O)N[C@@H](CO)C(=O)Nc1nccs1)N(O)C=O` (some centres not stated), the XC50 was determined as 325 nM.

Turning to `CCN(CC)CCNC(=O)c1ccc(Nc2ncc([N+](=O)[O-])c(Nc3ccccc3OC)n2)cc1`, the XC50 was 144 nM.

As to `COc1ccccc1-c1csc(C(=O)NCC2CCN(Cc3ccc(C(C)C)cc3)C2)c1` (configuration not stated), the XC50 worked out at 1350 nM.

`Cc1ccccc1C1CCN(C2CCC(NC(=O)/C=C/c3cccc(Cl)c3)CC2)CC1` (configuration not stated) gave an XC50 of 891 nM.

For the compound `O=C(/C=C/c1ccc(C(F)(F)F)cc1)N1CCc2cc3nccc(N4CCN5CCC[C@H]5C4)c3cc21`, the XC50 was found to be 1510 nM.

With `COc1ccc(-c2cccc(NC(=O)c3ccc(Cl)cc3)c2)cc1CN1CCCC1`, the XC50 was 778 nM.

In turn, `OC(CNCc1ccccc1OC(F)F)c1cccc(C(F)(F)F)c1` (configuration not stated) gave an XC50 of 765 nM.

Consider `COc1ccc(N2CCN(CCCCNC(=O)c3ccc(NC(=O)c4ccc(Cl)c(Cl)c4)cc3)CC2)c(OC)c1`, for which the XC50 is 212 nM.

`CCOc1ccc(NC(C)=O)c(O)c1` displayed an XC50 of 843 nM.

`COc1cccc(-c2cccc(CNC3CCN(CC4Cn5c(=O)ccc6ccc(F)c4c65)CC3)c2)c1` (configuration not stated) showed an XC50 of 934 nM.

Consider `COc1ccc2nc3cc(Cl)ccc3c(Nc3ccc(C(=O)O)cc3)c2c1`, for which the XC50 came out at 301 nM.

`CC[C@H]1CN2CC[C@@H]1C[C@H]2[C@H](O)c1cc(-c2ccccc2)nc2ccc(O)cc12` showed an XC50 of 189 nM.

Compound `CN1CCCC(CN2CCN(Cc3ccc(-c4ccc(-c5nc6ccccc6[nH]5)s4)cc3)CC2)C1` (configuration not stated) had an XC50 of 133 nM.

`CC1c2cccc(O)c2CCN1CCc1ccc(Cl)c(Cl)c1` (configuration not stated) had an XC50 of 138 nM.

`CC(Oc1ccc(Cl)cc1Cl)c1nc(-c2ccc(NC(=O)c3ccco3)cc2)no1` (configuration not stated) yielded an XC50 of 905 nM.

In the case of `CC(C)(C)NCc1cc(Nc2ccnc3cc(Cl)ccc23)ccc1F`, the XC50 was 30.3 nM.

`CCc1c(CCNCCCCCCNCCc2ccc3c(c2C)OCO3)ccc2c1OCO2` registered an XC50 of 608 nM.

As for `O=C(c1cc(-c2ccco2)n[nH]1)N1CCN(S(=O)(=O)c2ccc(Cl)cc2)CC1`, the XC50 was 356 nM.

For `Cc1[nH]c2ccc(C#N)cc2c(=O)c1Br`, the XC50 turned out to be 640 nM.

The compound `CN1C(C)(C)CC(NC(=O)c2ccc(-c3nc4cc(Cl)c(Cl)cc4[nH]3)cc2)CC1(C)C` registered an XC50 of 730 nM.

Compound `NC(=O)C1CCN(Cc2ccc(-c3ccc(-c4nc5cc(F)ccc5[nH]4)cc3)cc2)CC1` gave an XC50 of 809 nM.

`CC1CCCC(Nc2noc(-c3sccc3Br)n2)C1` (configuration not stated): the XC50 was 689 nM.

The compound `CNC(=O)c1cc(F)c(F)cc1Nc1nc(Nc2cccc(CS(C)(=O)=O)c2)ncc1Cl` came in with an XC50 of 1020 nM.

`CC1CC1C(=O)NC1CCN(CC2(c3ccccc3)CCCCC2)CC1` (configuration not stated): the XC50 came to 637 nM.

With `CCNCc1ccc(-c2cc3ncnc(Nc4ccc(OCc5cccc(F)c5)c(Cl)c4)c3s2)[nH]1`, the XC50 was 109 nM.

`O=C(CNC1=NCCN1)Nc1ccc(NC(=O)Nc2ccc(NC(=O)CNC3=NCCN3)cc2)cc1`: the XC50 is 781 nM.
